# Measured values from US11708348B2, “Protease inhibitors for treatment of coronavirus infections” (The Scripps Research Institute, priority 2021, dated 2023).
# Read-outs that look alike come from different tables or passages of the source.
# How the values were obtained:
# [1] = tested on: hospitalized COVID-19 patients; conditions: large multi-center trial; cited from earlier work
# [2] = biological target: COVID-2 M^pro protease (Severe acute respiratory syndrome coronavirus 2, UniProt P0DTD1); conditions: cell and enzyme assays; cited from earlier work
# [3] = tested on: SARS-CoV-2 strain USA-WA1/2020; assay: microbe, parasite or virus in culture; assay type: cell-based; conditions: Severe acute respiratory syndrome coronavirus 2, HeLa-ACE2, 24 h, HeLa-ACE2 cells, SARS-CoV-2 infection, 24 h, read-out: EC50, uM (Hela)
structure (smiles),measurement,setting,value
CCN(CCO)CCCC(C)Nc1ccnc2cc(Cl)ccc12 (centres unmarked) [hydroxychloroquine],mortality of hospitalized COVID-19 patients,[1],failed to reduce mortality
Cc1cccc(C)c1OCC(=O)N[C@@H](Cc1ccccc1)[C@@H](O)C[C@H](Cc1ccccc1)NC(=O)[C@H](C(C)C)N1CCCNC1=O [lopinavir],mortality of hospitalized COVID-19 patients,[1],failed to reduce mortality
COCC(=O)[C@H](C[C@@H]1CCNC1=O)NC(=O)[C@H](CC(C)C)NC(=O)c1cc2c(OC)cccc2[nH]1 [methyl ether of PF-00835231],fold less active than PF-00835231,[2],3-5 fold
"CC[C@](C)(O)C(=O)N1C[C@H]2[C@@H]([C@H]1C(=O)N[C@@H](C[C@@H]1CCNC1=O)C(=O)COC(F)(F)F)C2(C)C [Compound 367, (1R,2S,5S)-3-((S)-2-hydroxy-2-methylbutanoyl)-6,6-dimethyl-N-((S)-3-oxo-1-((S)-2-oxopyrrolidin-3-yl)-4-(trifluoromethoxy)butan-2-yl)-3-azabicyclo[3.1.0]-hexane-2-carboxamide]",EC50,[3]; bound printed in cell,> 1 µM
"O=C1NCC[C@H]1C[C@H](NC(=O)[C@@H]1C[C@@H](C(F)(F)F)CN1C(=O)[C@@H](O)c1ccccc1)C(=O)COC(F)(F)F [Compound 785, (2S,4R)-1-((S)-2-hydroxy-2-phenylacetyl)-N-((S)-3-oxo-1-((S)-2-oxopyrrolidin-3-yl)-4-(trifluoromethoxy)butan-2-yl)-4-(trifluoromethyl)pyrrolidine-2-carboxamide]",EC50,[3],0.05 to 0.2 µM
"CC(C)C[C@H](NC(=O)c1cc2cccnc2[nH]1)C(=O)N[C@@H](C[C@@H]1CCNC1=O)C(=O)COC(F)(F)F [Compound 194, N-((S)-4-methyl-1-oxo-1-(((S)-3-oxo-1-((S)-2-oxopyrrolidin-3-yl)-4-(trifluoromethoxy)butan-2-yl)amino)pentan-2-yl)-1H-pyrrolo[2,3-b]pyridine-2-carboxamide]",EC50,[3]; class symbols,< 0.05 µM
"O=C1NCC[C@H]1C[C@H](NC(=O)[C@H](CC1CC1)NC(=O)[C@H]1CCCO1)C(=O)COC(F)(F)F [Compound 300, (R)-N-((S)-3-cyclopropyl-1-oxo-1-(((S)-3-oxo-1-((S)-2-oxopyrrolidin-3-yl)-4-(trifluoromethoxy)butan-2-yl)amino)propan-2-yl)tetrahydrofuran-2-carboxamide]",EC50,[3]; class symbols,< 0.05 µM
"CC(C)C[C@H](NC(=O)[C@H](O)Cc1ccccc1)C(=O)N[C@@H](C[C@@H]1CCNC1=O)C(=O)COC(F)(F)F [Compound 207, (S)-2-((R)-2-hydroxy-3-phenylpropanamido)-4-methyl-N-((S)-3-oxo-1-((S)-2-oxopyrrolidin-3-yl)-4-(trifluoromethoxy)butan-2-yl)pentanamide]",EC50,[3]; class symbols,< 0.05 µM
